From publication PMC11325555, “Interaction of Bisphenol A and Its Analogs with Estrogen and Androgen Receptor from Atlantic Cod (Gadus morhua)” (Environmental Science & Technology, 2024)

Target: T1, Atlantic cod androgen receptor alpha (gmAra) LBD (Gadus morhua, UniProt D5FIC7)
T1 sequence (D5FIC7 409-718): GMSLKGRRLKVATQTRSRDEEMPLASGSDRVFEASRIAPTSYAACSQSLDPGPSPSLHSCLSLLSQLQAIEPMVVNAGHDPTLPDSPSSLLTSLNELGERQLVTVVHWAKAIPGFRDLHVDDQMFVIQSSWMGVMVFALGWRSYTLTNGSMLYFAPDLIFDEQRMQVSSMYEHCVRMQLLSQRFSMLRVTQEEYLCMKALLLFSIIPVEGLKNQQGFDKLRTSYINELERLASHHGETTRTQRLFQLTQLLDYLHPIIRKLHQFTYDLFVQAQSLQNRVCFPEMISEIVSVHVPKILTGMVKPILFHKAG
Assay: Luciferase reporter gene assay, gmAra antagonism (antiandrogenic activity), coexposure with 5 nM testosterone
Assay type: cell-based
Settings: BPs 0.003–50 μM with 5 nM testosterone
Method: Ligand activation of gmEra and gmAra was studied with a luciferase reporter gene assay in COS-7 cells transiently transfected with the pCMX-GAL4(DBD)-gmEra(LBD) or pCMX-GAL4(DBD)-gmAra(LBD) plasmid by using the TransIT-LT1 reagent (TransIT-LT1 Transfection Reagent, Mirus). Cells were seeded into 96-well plates (5000 cells/well) and incubated for 24 h before cotransfection with the plasmid mixture (100 ng/well). The plasmid mixture contained GAL4-UAS luciferase reporter plasmid (tk-(MH100)x4 luc), the pCMX-GAL4(DBD)-gmEra(LBD) or pCMX-GAL4(DBD)-gmAra(LBD) receptor plasmids (2:1 reporter:receptor plasmid mass ratio), and a plasmid constitutively producing the β-galactosidase enzyme used for normalization of transfection efficiency (pCMV- β-Gal). […] The maximum DMSO/methanol concentrations in the exposure wells were 0.5% (v/v) in DMEM medium without phenol red (Sigma-Aldrich). After exposure, cells were lysed, and luciferase and beta-galactosidase activities were measured as luminescence and absorbance (420 nm) after the addition of luciferin and ONPG substrates, respectively, using an Enspire Multimode plate reader (PerkinElmer, Waltham, Massachusetts, USA).
The dose–response curves were created using nonlinear regression and the four-parameter logistic fit in Graphpad Prism v.9. *p < 0.05 versus solvent control by ANOVA and Dunnett’s multiple comparison post hoc test.

Oc1ccc(C2(c3ccc(O)cc3)c3ccccc3-c3ccccc32)cc1 [BPFL]
effect on testosterone-mediated gmAra activity, result in words: significant increases in gmAr activity
